Legend:
[1] = UV absorbance of PMMA films loaded with additive; format: physicochemical; conditions: additive 5% w/w of PMMA; value includes PMMA absorbance (higher by 0.07)
[2] = Sublimation of additive from PMMA film on hotplate heating (absorption spectra); format: physicochemical
Experimental: The same procedure was repeated for heating at 110° C., 130° C. and 160° C. The spectra taken each time were compared and the possible sublimation of the additive after the different thermal treatment procedures was calculated.
The following explanations apply to all tables. […] SUBL=temperature of sublimation.

[3] = UV absorbance of PMMA films loaded with additive; format: physicochemical; conditions: additive 7.5% w/w of PMMA
Experimental: A quantity of a polyaromatic compound (i.e.compound (XI), Table 9), was added in part of this solution at a 7.5% w/w of the polymer concentration.
The solution was stirred at room temperature for a few hours and the polyaromatic compound was dissolved. Then, a small amount of the solution was used to spin coat a film on quartz substrate at 4000 rpm for 30 sec. The thickness of this film was measured by a profilometer and found 12250 Å. The absorption spectrum of the film was taken at vertical incidence.
The same procedure was repeated, using the initial PMMA solution this time. A new film was spun and its thickness was found 13000 Å. […]

[4] = Solubility of additive in the solvents used (PGMEA, MIBK)
Experimental: It is important that the selected additive is soluble in the solvents commonly used in the microlithography process. […] After film formation the amount of the additive sublimed during the baking cycles was tested. Evaluation of spectroscopic and etch resistance enhancement followed.
SOL=solubility at the solvents used (##=very bad, #=bad, *=good, **=very good). SUBL=temperature of sublimation.

Row | UV 193 nm (absorbance) [3] | UV 248 nm (absorbance) [3] | SUBL (temperature of sublimation) ([2]; additive 7.5% w/w in PMMA film) | solubility (in words) [4] | SMILES | UV 193 nm (absorbance) [1] | SUBL (temperature of sublimation) ([2]; additive 5% w/w in PMMA film)
1 |  |  |  |  | Nc1ccc2cc3ccccc3cc2c1 [2-aminoanthracene] | 0.51 /0.5 μm | 110 °C
2 |  |  |  |  | O=C(O)c1c2ccccc2cc2ccccc12 [9-anthracene carboxylic acid] | 0.46 /0.5 μm | 110 °C
3 |  |  |  |  | OCc1c2ccccc2cc2ccccc12 [9-anthracene methanol] | 0.43 /0.5 μm | 110 °C
4 | 0.17 /0.5 μm | 0.45 /0.5 μm | 160 °C |  | O=C(OCC(COC(=O)C12CC3CC(CC(C3)C1)C2)Cc1c2ccccc2cc2ccccc12)C12CC3CC(CC(C3)C1)C2 (stereo not drawn) [Compound XIII, Mixed anthryl ester] |  | 
5 | 0.33 /0.5 μm | 1.25 /0.5 μm | 160 °C | improved solubility | O=C(O)CCC(=O)OC(Cc1c2ccccc2cc2ccccc12)Cc1c2ccccc2cc2ccccc12 [II, 1,3-di-(9-anthryl2-propyl hydrogen succinate] |  | 
6 | 0.22 /0.5 μm | 0.31 /0.5 μm | 160 °C |  | c1ccc2c(CNCc3c4ccccc4cc4ccccc34)c3ccccc3cc2c1 [IV, N,N-Di-(9-anthrylmethyl)-amine] |  | 
7 | 1.41 /0.5 μm | 1.74 /0.5 μm | 160 °C | decreased solubility | O=C(CCC(=O)OC(Cc1c2ccccc2cc2ccccc12)Cc1c2ccccc2cc2ccccc12)OCc1c2ccccc2cc2ccccc12 [IX, 1,3-Di-(9-anthryl)-2-propyl 9-anthrylmethyl Succinate] |  | 
8 | 0.16 /0.5 μm | 0.48 /0.5 μm | 160 °C | improved solubility | OC(Cc1c2ccccc2cc2ccccc12)Cc1c2ccccc2cc2ccccc12 [I] |  | 
9 | 0.24 /0.5 μm | 1.04 /0.5 μm | 130 °C |  | O=C(OCCOc1c2ccccc2cc2ccccc12)OCCOc1c2ccccc2cc2ccccc12 [VI, Di-2-(9-anthryloxy)-ethyl carbonate] |  | 
10 |  |  |  | improved solubility | c1ccc2c(CNC3CCCCC3NCc3c4ccccc4cc4ccccc34)c3ccccc3cc2c1 (stereo not drawn) [VIII, trans-1,2-Di-(9-aminomethyl-anthryl)-cyclohexane] |  | 
11 | 0.35 /0.5 μm | 1.16 /0.5 μm | 160 °C | not satisfactory | O=C(OCc1c2ccccc2cc2ccccc12)c1c2ccccc2cc2ccccc12 [VII] |  | 
12 | 0.33 /0.5 μm | 0.75 /0.5 μm | 160 °C | decreased solubility | O=C(CCC(=O)OC(Cc1c2ccccc2cc2ccccc12)Cc1c2ccccc2cc2ccccc12)OCC(COC(=O)CCC(=O)OC(Cc1c2ccccc2cc2ccccc12)Cc1c2ccccc2cc2ccccc12)Cc1c2ccccc2cc2ccccc12 [X, Penta-anthryl ester] |  | 
13 | 0.05 /0.5 μm | 0.36 /0.5 μm | 160 °C | very good solubility | O=C(OCc1c2ccccc2cc2ccccc12)C12CC3CC(CC(C3)C1)C2 [XI, 1-adamantyl 9-anthrylmethylate] |  | 
14 |  |  |  |  | c1ccc2cc3ccccc3cc2c1 [anthracene] | 0.38 /0.5 μm | 110 °C

Row | SMILES | UV 193 nm (absorbance) [3] | UV 248 nm (absorbance) [3] | SUBL (temperature of sublimation) ([2]; additive 7.5% w/w in PMMA film) | solubility (in words) [4] | UV 193 nm (absorbance) [1] | SUBL (temperature of sublimation) ([2]; additive 5% w/w in PMMA film)
15 | CC(=O)C1CCC2C3CC=C4CC(OC(=O)c5c6ccccc6cc6ccccc56)CCC4(C)C3CCC12C (stereo not drawn) [Compound XIV, 5-pregnen-3β-yl-(9-anthryl-methylate)-20-one] | 0.20 /0.5 μm | 0.52 /0.5 μm | 160 °C |  |  | 

From patent publication US20050026068A1, “Polycarbocyclic derivatives for modification of resist, optical and etch resistance properties” (priority 2001, published 2005)
